Like-named read-outs stand apart in the source and are kept apart here.

The target of one assay is T1, human STING (Homo sapiens, UniProt Q86WV6).
T1 construct: N-terminal cysteine (thiol coupling handle)
The assay is described as follows: surface plasmon resonance (SPR)-based hSTING binding assay. To be noted: for kon: read-out: Ka; for Kd: KD = Kd/Ka. The text has this:
Direct measurement of affinity constants provide assistance in pharmacokinetic and pharmacodynamic studies. In this study, we evaluated the binding affinities between human STING and the synthesized CNDs by the surface plasmon resonance (SPR)-based assay, which loaded minuscule amounts of STING protein on a biosensor chip, and free-labeled samples were directly detected in short measurement times.
hSTING was firstly immobilized on a CM5 sensor chip via a N-terminal cysteine thiol group, without altering conformation or binding activity. […] Kinetic parameters generally give both an aggregation constant (ka) and a disaggregation constant (kd), from which the equilibrium dissociation constant KD can be calculated by KD = Kd/Ka.
SPR system was primed using the manufacturer’s HEPES-buffered saline at 25 °C. CM5 chips were warmed to room temperature on the bench before being added to the system. SPR surfaces were cleaned and conditioned (separate injections of 50 mM NaOH, 1 M NaCl, 0.1% SDS and 10 mM HCl, each for 60 s at 10 μL/min) prior to normalization using the manufacturer’s 70% glycerol solution (GE Healthcare). STING was prepared at 100 μg/mL in SPR running buffer with no DMSO and injected twice onto channel 2 for 600 s at 5 μL/min.
Cyclic dinucleotides were prepared to 1-mM stocks in SPR running buffer. A 12-concentrations dilution series, including a blank containing no substrate, were made and diluted in a 96-well polypropylene Greiner plate. Plates were spun and then placed at 4 °C until experimentation. Experiments were performed at 60 μL/min with data collected every 0.1s.
On the technique in general: In SPR one partner is held on a chip, and binding of the other changes the refractive index at the surface.

Another assay deals with THP-1 cells. The assay is described as follows: IFN-β production in THP-1 cells by ELISA. To be noted: 1 μM, 18 h. In general terms: ELISA stands for enzyme-linked immunosorbent assay.
Where [1] appears, read: SPR, hSTING immobilized on CM5 chip, 25 °C.

T1 sequence (Q86WV6 whole entry): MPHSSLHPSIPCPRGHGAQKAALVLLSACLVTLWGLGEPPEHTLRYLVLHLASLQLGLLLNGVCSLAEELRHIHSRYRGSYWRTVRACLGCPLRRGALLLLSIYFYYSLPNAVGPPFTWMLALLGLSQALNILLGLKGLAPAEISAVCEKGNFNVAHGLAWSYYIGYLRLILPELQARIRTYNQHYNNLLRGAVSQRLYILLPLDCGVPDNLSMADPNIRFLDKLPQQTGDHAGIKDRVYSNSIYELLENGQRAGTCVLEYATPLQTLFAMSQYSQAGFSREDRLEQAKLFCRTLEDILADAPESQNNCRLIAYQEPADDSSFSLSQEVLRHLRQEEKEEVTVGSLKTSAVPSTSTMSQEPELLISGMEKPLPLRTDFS
Description for THP-1 cells: The IFN-β levels in the cell culture supernatants were measured using the ELISA kits (Meimian Biotechnology, Jiangsu, China), according to the manufacturer’s instructions.

As for `Cc1cn(C2OC3COP(=O)(O)OC4C(O)C(COP(=O)(O)OC3C2O)OC4n2cnc3c(=O)[nH]c(N)nc32)c(=O)nc1N` (stereo not shown) [Compound 8c, 2′,3′-cyclic-guanosine-5-methylcytidine], on human STING (setting [1]), the “dissociation rate constant koff” value turned out to be 1.397e-05 s⁻¹ and the kon worked out at 152 M⁻¹ s⁻¹. The compound also had a Kd at human STING (SPR) of 0.092 µM.

Turning to `Cc1cn([C@@H]2O[C@@H]3COP(O)(=S)O[C@@H]4[C@H](O)[C@@H](COP(O)(=S)O[C@H]3[C@H]2O)O[C@H]4n2cnc3c(=O)[nH]c(N)nc32)c(=O)[nH]c1=O` (stereo partly shown) [Compound 8b, 2′,3′-cyclic-guanosine(PS)-5-methyluridine(PS)], at human STING (setting [1]), the “dissociation rate constant koff” value was 0.0001339 s⁻¹. Besides, the kon on human STING is 233 M⁻¹ s⁻¹. Besides, the “production of IFN-β (ELISA)” value with THP-1 cells is on record as “more IFN-β than the corresponding phosphodiester analogs”.

As to `Cc1cn([C@@H]2O[C@@H]3COP(=O)(O)O[C@@H]4[C@H](O)[C@@H](COP(=O)(O)O[C@H]3[C@H]2O)O[C@H]4n2cnc3c(=O)[nH]c(N)nc32)c(=O)[nH]c1=O` [Compound 8a, 2′,3′-cyclic-guanosine-5-methyluridine], at human STING (setting [1]), the “dissociation rate constant koff” value worked out at 0.002649 s⁻¹ and the kon stood at 349 M⁻¹ s⁻¹. Moreover, binding at human STING (SPR) was characterised by a dissociation constant (Kd) of 7.58 µM.

Regarding `Cc1cn([C@@H]2O[C@@H]3COP(=O)(O)O[C@H]4[C@@H](O)[C@H](n5cnc6c(N)ncnc65)O[C@@H]4COP(=O)(O)O[C@@H]2[C@@H]3O)c(=O)[nH]c1=O` [Compound 12a, 2′,3′-cyclic-5-methyluridine-adenosine], at human STING (setting [1]), the “dissociation rate constant koff” value came to 0.002431 s⁻¹ and the kon is 208 M⁻¹ s⁻¹. Also, binding on human STING (SPR) was characterised by a dissociation constant (Kd) of 11.7 µM.

In the case of `Cc1cn([C@@H]2O[C@@H]3COP(=O)(O)O[C@H]4[C@@H](O)[C@H](n5cnc6c(N)ncnc65)O[C@@H]4COP(=O)(O)O[C@@H]2[C@@H]3O)c(=O)nc1N` [Compound 12c, 2′,3′-cyclic-5-methylcytidine-adenosine], on human STING (setting [1]), the “dissociation rate constant koff” value is 0.0007331 s⁻¹ and the kon worked out at 198 M⁻¹ s⁻¹. On human STING (SPR), this compound had a Kd of 3.7 µM.

Regarding `Cc1cn([C@@H]2O[C@@H]3COP(O)(=S)O[C@H]4[C@@H](O)[C@H](n5cnc6c(N)ncnc65)O[C@@H]4COP(O)(=S)O[C@@H]2[C@@H]3O)c(=O)[nH]c1=O` (stereo partly shown) [Compound 12b, 2′,3′-cyclic-5-methyluridine(PS)-adenosine(PS)], on human STING (setting [1]), the “dissociation rate constant koff” value is 0.0009865 s⁻¹ and the kon was 289 M⁻¹ s⁻¹. This compound also yielded a Kd on human STING (SPR) of 3.41 µM. The “production of IFN-β (ELISA)” value in the assay on THP-1 cells is “more IFN-β than the corresponding phosphodiester analogs”.

In general, Kd refers to the constant that tells how readily two partners part at equilibrium. A high value points to lower affinity.

Values taken from publication PMC7697705, “Design, Synthesis and Biological Evaluation of (2′,5′ and 3′5′-Linked) cGAMP Analogs that Activate Stimulator of Interferon Genes (STING)” (Molecules, 2020).
